One may read the IC50 as the concentration that gives 50% inhibition.

The target in the assay is T1, Human autotaxin enzyme (Homo sapiens, UniProt Q13822).
T1 construct: purchased R&D System
Briefly: Evaluation of autotaxin inhibitor, 18:0 Lyso PC / choline assay (Test Example 2). The assay is classed as biochemical. Conditions: human autotaxin enzyme, 18:0 Lyso PC substrate, choline assay, room temperature 2 hours; read-out: Inhibitor activity (IC50). In short, it runs like this: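 Human autotaxin in 100 mM Tris-HCl pH 7.5, 150 mM NaCl, 5 mM MgCl2, 0.05% Triton X-100 reacted with 18:0 Lyso PC (200 μM stock) and test compound 2 h at room temperature. Released choline quantified via choline oxidase/peroxidase resorufin fluorescence (ex 531/em 598 nm, 20 min); inhibition vs no-compound and no-enzyme controls, concentration-response curve.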
With `Cc1nc(-c2ccc(C#N)cc2NC(=O)C(C)(C)C)cc(=O)n1CC(=O)NCC1(CO)COC1` [Compound I-0308], the IC50 was in the range of 0.01 to 0.1 µM.
The result for `COC(=O)Nc1cc(Cl)ccc1-c1cc(=O)n(CC(=O)NC2CCS(=O)(=O)C2)c(C)n1` (stereo not shown) [Compound I-0309] reads 0.01 to 0.1 µM.
The result for `Cc1nc(-c2ccc(Cl)cc2NC(=O)C(C)(C)C)cc(=O)n1CC(=O)Nc1cccnc1O` [Compound I-0310] reads 0.01 to 0.1 µM; that for `CCOC(=O)c1noc(Cn2c(CCCC(F)(F)F)nc(-c3ccc(Cl)cc3)cc2=O)n1` [Compound I-0311], 0.1 to 1 µM; that for `COC(=O)c1ccc(Cn2c(CCCC(F)(F)F)nc(-c3ccc(Cl)cc3)cc2=O)s1` [Compound I-0312], 0.1 to 1 µM.
In the case of `COC(=O)c1cc(Cn2c(CCCC(F)(F)F)nc(-c3ccc(Cl)cc3)cc2=O)cs1` [Compound I-0313] it was 0.1 to 1 µM; in that of `N#CC1CN(C(=O)Cn2c(CCCC(F)(F)F)nc(-c3ccc(C(F)(F)F)cc3)cc2=O)C1` [Compound I-0314], 0.01 to 0.1 µM.
As to `CC1(O)CN(C(=O)Cn2c(CCCC(F)(F)F)nc(-c3ccc(Cl)cc3CO)cc2=O)C1` [Compound I-0315], the IC50 is at least 1 µM.
Turning to `CSc1nc(-c2ccc(Cl)cc2NC(=O)C(C)(C)C)cc(=O)n1CC(=O)NC1(C#N)CC1` [Compound I-0316], the IC50 was 0.01 to 0.1 µM.
The result for `Cc1nc(-c2ccc(Cl)cc2NC(=O)C(C)(C)C)cc(=O)n1CC(=O)NCC1(CO)COC1` [Compound I-0317] reads 0.01 to 0.1 µM.
Take `O=C(Cn1c(CCCC(F)(F)F)nc(-c2ccc(C(F)(F)F)cc2)cc1=O)NCC1CCO1` (stereo not shown) [Compound I-0318]: the IC50 lay in the range of 0.01 to 0.1 µM.
In the case of `O=C(Cn1c(CCCC(F)(F)F)nc(-c2ccc(C(F)(F)F)cc2)cc1=O)N1CCC(O)C1` (stereo not shown) [Compound I-0319] it was 0.1 to 1 µM; in that of `CC1(O)CN(C(=O)Cn2c(CCCC(F)(F)F)nc(-c3ccc(C(F)(F)F)cc3)cc2=O)C1` [Compound I-0320], 0.1 to 1 µM.
In the case of `CC(C)(O)CNC(=O)Cn1c(CCCC(F)(F)F)nc(-c2ccc(C(F)(F)F)cc2)cc1=O` [Compound I-0321] it was 0.01 to 0.1 µM; in that of `O=C(O)c1cccc(Cn2c(CCCC(F)(F)F)nc(-c3ccc(Cl)cc3CO)cc2=O)c1` [Compound I-0322], 0.01 to 0.1 µM.
The result for `O=C(Cn1c(CCCC(F)(F)F)nc(-c2ccc(C(F)(F)F)cc2)cc1=O)NCC(O)CO` (stereo not shown) [Compound I-0323] reads 0.01 to 0.1 µM.
Turning to `COC(=O)Nc1cc(Cl)ccc1-c1cc(=O)n(CC(=O)NC2(C)CCS(=O)(=O)C2)c(C)n1` (stereo not shown) [Compound I-0324], the IC50 lay within 0.01 to 0.1 µM.
In the case of `CS(C)(=O)=NC(=O)Cn1c(CCCC(F)(F)F)nc(-c2ccc(C(F)(F)F)cc2)cc1=O` [Compound I-0325] it was 0.01 to 0.1 µM.
As to `CCOC(=O)c1nc(Cn2c(CCCC(F)(F)F)nc(-c3ccc(Cl)cc3)cc2=O)cs1` [Compound I-0326], the IC50 fell in the range of 0.01 to 0.1 µM.
The result for `N#CC1CCN(C(=O)Cn2c(CCCC(F)(F)F)nc(-c3ccc(C(F)(F)F)cc3)cc2=O)C1` (stereo not shown) [Compound I-0327] reads 0.01 to 0.1 µM; that for `O=C(Cn1c(CCCC(F)(F)F)nc(-c2ccc(Cl)cc2CO)cc1=O)NCC1(CO)CC1` [Compound I-0328], 0.01 to 0.1 µM.
The result for `Cc1nc(-c2ccc(Cl)cc2NC(=O)C(C)(C)C)cc(=O)n1CC(=O)N1CCC(C(N)=O)CC1` [Compound I-0329] reads 0.01 to 0.1 µM; that for `O=C(Cn1c(CCCC(F)(F)F)nc(-c2ccc(C(F)(F)F)cc2)cc1=O)NCc1c[nH]nn1` [Compound I-0330], 0.01 to 0.1 µM.
In the case of `O=C(Cn1c(CCCC(F)(F)F)nc(-c2ccc(C(F)(F)F)cc2)cc1=O)NCc1nn[nH]n1` [Compound I-0331] it was below 0.01 µM.
As to `CN(C(=O)Cn1c(CCCC(F)(F)F)nc(-c2ccc(C(F)(F)F)cc2)cc1=O)C1(C)COC1` [Compound I-0332], the IC50 was 0.01 to 0.1 µM.
In the case of `O=C(Cn1c(CCCC(F)(F)F)nc(-c2ccc(C(F)(F)F)cc2)cc1=O)NCCc1cn[nH]c1` [Compound I-0333] it was 0.01 to 0.1 µM; in that of `O=C(Cn1c(CCCC(F)(F)F)nc(-c2ccc(Cl)cc2CO)cc1=O)NCC1(CO)COC1` [Compound I-0334], 0.01 to 0.1 µM.
In the case of `O=C(Cn1c(CCCC(F)(F)F)nc(-c2ccc(C(F)(F)F)cc2)cc1=O)NCC1CCC(=O)N1` (stereo not shown) [Compound I-0335], the 50% inhibitory concentration (IC50) was 0.01 to 0.1 µM.
The result for `O=C1CC(CNC(=O)Cn2c(CCCC(F)(F)F)nc(-c3ccc(C(F)(F)F)cc3)cc2=O)CN1` (stereo not shown) [Compound I-0336] reads 0.01 to 0.1 µM; that for `O=C(Cn1c(CCCC(F)(F)F)nc(-c2ccc(C(F)(F)F)cc2)cc1=O)NCC1(CO)COC1` [Compound I-0337], 0.01 to 0.1 µM; that for `O=C(Cn1c(CCCC(F)(F)F)nc(-c2ccc(C(F)(F)F)cc2)cc1=O)N1CCOC(CO)C1` (stereo not shown) [Compound I-0338], 0.01 to 0.1 µM.
Regarding `O=C(Cn1c(CCCC(F)(F)F)nc(C2=CCC(C(F)(F)F)CC2)cc1=O)NCC1(CO)COC1` (stereo not shown) [Compound I-0339], the IC50 lay within 0.01 to 0.1 µM.
`O=C(Cn1c(CCCC(F)(F)F)nc(-c2ccc(C(F)(F)F)cc2)cc1=O)NCc1ccc(O)nc1` [Compound I-0340]: the IC50 was in the range of 0.1 to 1 µM.
Take `CC(C)(C)OC(=O)Cn1c(CCC(F)(F)F)nc(-c2ccc(Cl)cc2NC(=O)C(C)(C)C)cc1=O` [Compound I-0341]: the IC50 fell in the range of 0.1 to 1 µM.
In the case of `NC(=O)C1CCN(C(=O)Cn2c(CCCC(F)(F)F)nc(-c3ccc(C(F)(F)F)cc3)cc2=O)CC1` [Compound I-0342] it was 0.01 to 0.1 µM; in that of `O=C1CCC(CNC(=O)Cn2c(CCCC(F)(F)F)nc(-c3ccc(C(F)(F)F)cc3)cc2=O)CN1` (stereo not shown) [Compound I-0343], 0.1 to 1 µM.
In the case of `O=C(Cn1c(CCCC(F)(F)F)nc(-c2ccc(C(F)(F)F)cc2)cc1=O)NCC1(O)CCCCC1` [Compound I-0344] it was 0.01 to 0.1 µM; in that of `O=C(O)c1cccc(Cn2c(CCC(F)(F)F)nc(-c3ccc(Cl)cc3NC(=O)C3CC3)cc2=O)c1` [Compound I-0345], 0.01 to 0.1 µM; in that of `O=C(Cn1c(CCCC(F)(F)F)nc(-c2ccc(C(F)(F)F)cc2)cc1=O)N1CCN(CCO)CC1` [Compound I-0346], 0.01 to 0.1 µM.
In the case of `O=C(Cn1c(CCCC(F)(F)F)nc(-c2ccc(C(F)(F)F)cc2)cc1=O)NC1(c2cccnc2)CC1` [Compound I-0347] it was 0.01 to 0.1 µM.
For `O=C(Cn1c(CCCC(F)(F)F)nc(-c2ccc(C(F)(F)F)cc2)cc1=O)NC1(c2ccccn2)CC1` [Compound I-0348], the half-inhibitory concentration (IC50) lay within 0.01 to 0.1 µM.
The result for `O=C(Cn1c(CCCC(F)(F)F)nc(-c2ccc(C(F)(F)F)cc2)cc1=O)N1CCS(=O)(=O)CC1` [Compound I-0349] reads 0.01 to 0.1 µM.
In the case of `CNC(=O)C1CCN(C(=O)Cn2c(CCCC(F)(F)F)nc(-c3ccc(C(F)(F)F)cc3)cc2=O)CC1` [Compound I-0350] it was 0.01 to 0.1 µM.
The result for `CC(=O)NC1CCN(C(=O)Cn2c(CCCC(F)(F)F)nc(-c3ccc(C(F)(F)F)cc3)cc2=O)CC1` [Compound I-0351] reads 0.1 to 1 µM; that for `CC(C)(O)C1CCN(C(=O)Cn2c(CCCC(F)(F)F)nc(-c3ccc(C(F)(F)F)cc3)cc2=O)CC1` [Compound I-0352], 0.01 to 0.1 µM.
Take `NC(=S)C1CCN(C(=O)Cn2c(CCCC(F)(F)F)nc(-c3ccc(C(F)(F)F)cc3)cc2=O)CC1` [Compound I-0353]: the IC50 lay in the range of 0.01 to 0.1 µM.
The result for `O=C(Cn1c(CCCC(F)(F)F)nc(-c2ccc(C(F)(F)F)cc2)cc1=O)N1CCC(OCCO)CC1` [Compound I-0354] reads 0.01 to 0.1 µM; that for `O=C(NCC1(CO)COC1)c1ccc(Cn2c(CCCC(F)(F)F)nc(-c3ccc(Cl)cc3)cc2=O)o1` [Compound I-0355], 0.1 to 1 µM; that for `CNC(=O)NC1CCN(C(=O)Cn2c(CCCC(F)(F)F)nc(-c3ccc(C(F)(F)F)cc3)cc2=O)CC1` [Compound I-0356], below 0.01 µM.
The result for `CC(C)(O)CN1CCN(C(=O)Cn2c(CCCC(F)(F)F)nc(-c3ccc(C(F)(F)F)cc3)cc2=O)CC1` [Compound I-0357] reads 0.1 to 1 µM.
In the case of `O=C(NCC1(CO)COC1)c1cccc(Cn2c(CCCC(F)(F)F)nc(-c3ccc(Cl)cc3)cc2=O)n1` [Compound I-0358] it was 0.01 to 0.1 µM; in that of `CS(=O)(=O)N1CCN(C(=O)Cn2c(CCCC(F)(F)F)nc(-c3ccc(C(F)(F)F)cc3)cc2=O)CC1` [Compound I-0359], 0.01 to 0.1 µM.
Regarding `CC(C)(C)C(=O)Nc1cc(Cl)ccc1-c1cc(=O)n(CC(=O)NCC2(CO)COC2)c(CCC(F)(F)F)n1` [Compound I-0360], the IC50 was 0.1 to 1 µM.
In the case of `CN1CNC(=O)C12CCN(C(=O)Cn1c(CCCC(F)(F)F)nc(-c3ccc(C(F)(F)F)cc3)cc1=O)CC2` [Compound I-0361] it was 0.01 to 0.1 µM.
As for `O=C(Cn1c(CCCC(F)(F)F)nc(-c2ccc(C(F)(F)F)cc2)cc1=O)N1CCC(N2CCNC2=O)CC1` [Compound I-0362], the IC50 is 0.01 to 0.1 µM.
The result for `CCNC(=O)N1CCC(NC(=O)Cn2c(CCCC(F)(F)F)nc(-c3ccc(C(F)(F)F)cc3)cc2=O)CC1` [Compound I-0363] reads 0.01 to 0.1 µM.
The result for `CN(C)C(=O)NC1CCN(C(=O)Cn2c(CCCC(F)(F)F)nc(-c3ccc(C(F)(F)F)cc3)cc2=O)CC1` [Compound I-0364] reads 0.1 to 1 µM.
Take `CNC(=O)CN1CCC(NC(=O)Cn2c(CCCC(F)(F)F)nc(-c3ccc(C(F)(F)F)cc3)cc2=O)CC1` [Compound I-0365]: the IC50 lay within 0.1 to 1 µM.
In the case of `CCS(=O)(=O)N1CCN(C(=O)Cn2c(CCCC(F)(F)F)nc(-c3ccc(C(F)(F)F)cc3)cc2=O)CC1` [Compound I-0366] it was 0.1 to 1 µM; in that of `CC(C)(C)C(=O)Nc1cc(Cl)ccc1-c1cc(=O)n(CC(=O)N2CCC(C(=O)O)CC2)c(CCC(F)(F)F)n1` [Compound I-0367], 0.01 to 0.1 µM.
In the case of `O=C(Cn1c(CCCC(F)(F)F)nc(-c2ccc(C(F)(F)F)cc2)cc1=O)NCCc1nnc(-c2ccccc2)o1` [Compound I-0368], the IC50 was in the range of 0.01 to 0.1 µM.

Source of the values: patent US10183949B2, “Pyrimidinone derivative having autotaxin-inhibitory activity” (The University of Tokyo, priority 2014, dated 2019).
